pIC50: −log10 of the molar value. Values after ≈ are worked out from the molar mass of the structure shown.
Experiments:
[1] = Chromatographic hydrophobicity index of the compound in ammonium acetate buffer at pH 7.4 by RP-HPLC analysis; format: physicochemical
[2] = Intrinsic clearance in mouse liver microsomes at 0.5 uM incubated upto 30 mins in presence of NADPH measured per mg protein by LC/MS/MS analysis; format: ADME, Microsome; conditions: read-out: CLH
[3] = Microsomal stability in mouse liver microsomes assessed as half life at 0.5 uM incubated upto 30 mins in presence of NADPH by LC/MS/MS analysis; format: ADME, Microsome
[4] = 1-Octanol/PBS buffer distribution coefficient, log D of the compound at 1 uM measured after 24 hrs at pH 7.4 by shake flask based HPLC-ES-MS/MS analysis; format: physicochemical
[5] = Apparent permeability across apical to basolateral side in human Caco-2 cells at 10 uM incubated for 60 mins by HPLC-MS/MS method; format: ADME, cell-based
[6] = Efflux ratio of apparent permeability across basolateral to apical side over apical to basolateral side in human Caco-2 cells; format: ADME, cell-based
[7] = target: Acetylcholinesterase (Homo sapiens, UniProt P22303)
Chain of Acetylcholinesterase (P22303 whole entry): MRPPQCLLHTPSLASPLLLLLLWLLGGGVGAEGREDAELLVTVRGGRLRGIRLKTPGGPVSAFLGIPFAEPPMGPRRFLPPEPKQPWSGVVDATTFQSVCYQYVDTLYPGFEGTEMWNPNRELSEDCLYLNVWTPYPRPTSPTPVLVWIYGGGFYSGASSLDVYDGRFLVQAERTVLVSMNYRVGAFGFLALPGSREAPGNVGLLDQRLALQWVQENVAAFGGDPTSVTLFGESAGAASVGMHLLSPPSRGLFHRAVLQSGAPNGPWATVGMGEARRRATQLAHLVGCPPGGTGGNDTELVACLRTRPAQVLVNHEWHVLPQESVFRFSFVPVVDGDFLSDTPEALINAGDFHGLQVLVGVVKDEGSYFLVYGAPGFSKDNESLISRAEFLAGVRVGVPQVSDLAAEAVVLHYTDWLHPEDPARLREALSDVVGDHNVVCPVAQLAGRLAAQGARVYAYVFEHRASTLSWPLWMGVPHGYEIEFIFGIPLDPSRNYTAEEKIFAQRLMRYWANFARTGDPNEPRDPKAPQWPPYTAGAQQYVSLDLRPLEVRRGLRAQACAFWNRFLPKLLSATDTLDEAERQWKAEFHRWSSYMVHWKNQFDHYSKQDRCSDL
Description: Inhibition of human recombinant AChE by Ellman's spectrophotometric assay

[8] = Apparent permeability across basolateral to apical side in human Caco-2 cells at 10 uM incubated for 60 mins by HPLC-MS/MS method; format: ADME, cell-based
[9] = Kinetic aqueous solubility of the compound in PBS incubated for 2 hrs under mild shaking at pH 7.4 by UV- vis spectrophotometric analysis; format: physicochemical; conditions: read-out: Kinetic_solubility
[10] = organism: Homo sapiens; assay: Selectivity for human recombinant MAO-B expressed in supersomes over human recombinant MAO-A expressed in supersomes
[11] = target: T1, Amine oxidase [flavin-containing] B (Homo sapiens, UniProt P27338)
T1 sequence (P27338 whole entry): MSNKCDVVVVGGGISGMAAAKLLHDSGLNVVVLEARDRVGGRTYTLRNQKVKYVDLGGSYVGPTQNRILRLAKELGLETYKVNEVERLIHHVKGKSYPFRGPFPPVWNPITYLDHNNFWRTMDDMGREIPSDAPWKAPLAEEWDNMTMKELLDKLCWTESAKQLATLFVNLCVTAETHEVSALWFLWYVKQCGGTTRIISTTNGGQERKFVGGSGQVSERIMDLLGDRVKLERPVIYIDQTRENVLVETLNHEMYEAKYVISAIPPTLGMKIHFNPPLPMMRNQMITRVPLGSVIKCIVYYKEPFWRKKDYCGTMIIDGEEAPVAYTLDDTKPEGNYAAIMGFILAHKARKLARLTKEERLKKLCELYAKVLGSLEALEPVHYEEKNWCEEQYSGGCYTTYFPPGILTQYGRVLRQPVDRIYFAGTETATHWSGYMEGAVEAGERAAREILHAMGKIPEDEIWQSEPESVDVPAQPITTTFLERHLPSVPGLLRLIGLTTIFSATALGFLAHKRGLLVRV
Description: Inhibition of human recombinant MAO-B expressed in supersomes assessed as inhibition of 4-hydroxyquinoline formation using kynuramine as substrate by spectrofluorimetric analysis

[12] = target: Cholinesterase (Equus caballus, UniProt P81908)
Chain of Cholinesterase (P81908 whole entry): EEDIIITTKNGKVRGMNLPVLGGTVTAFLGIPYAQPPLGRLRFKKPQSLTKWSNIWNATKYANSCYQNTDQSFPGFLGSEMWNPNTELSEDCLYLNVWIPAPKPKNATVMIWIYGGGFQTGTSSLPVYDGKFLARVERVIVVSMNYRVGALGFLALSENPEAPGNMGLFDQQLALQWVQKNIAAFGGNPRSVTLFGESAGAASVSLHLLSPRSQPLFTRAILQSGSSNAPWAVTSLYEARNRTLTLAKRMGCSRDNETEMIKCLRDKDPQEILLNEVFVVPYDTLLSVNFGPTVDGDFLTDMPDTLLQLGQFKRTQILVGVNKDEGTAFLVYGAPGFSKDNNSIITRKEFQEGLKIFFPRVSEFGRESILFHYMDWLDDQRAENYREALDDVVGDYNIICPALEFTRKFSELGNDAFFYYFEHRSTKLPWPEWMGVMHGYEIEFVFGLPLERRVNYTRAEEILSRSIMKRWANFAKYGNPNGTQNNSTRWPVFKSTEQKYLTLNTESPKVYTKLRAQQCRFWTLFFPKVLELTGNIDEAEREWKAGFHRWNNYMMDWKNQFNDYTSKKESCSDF
Description: Inhibition of horse serum BChE by Ellman's spectrophotometric assay

[13] = target: T2, MAO-A (Homo sapiens, UniProt P21397); assay: in vitro; conditions: recombinant MAO-A expressed in supersomes, probe kynuramine
T2 sequence (P21397 whole entry): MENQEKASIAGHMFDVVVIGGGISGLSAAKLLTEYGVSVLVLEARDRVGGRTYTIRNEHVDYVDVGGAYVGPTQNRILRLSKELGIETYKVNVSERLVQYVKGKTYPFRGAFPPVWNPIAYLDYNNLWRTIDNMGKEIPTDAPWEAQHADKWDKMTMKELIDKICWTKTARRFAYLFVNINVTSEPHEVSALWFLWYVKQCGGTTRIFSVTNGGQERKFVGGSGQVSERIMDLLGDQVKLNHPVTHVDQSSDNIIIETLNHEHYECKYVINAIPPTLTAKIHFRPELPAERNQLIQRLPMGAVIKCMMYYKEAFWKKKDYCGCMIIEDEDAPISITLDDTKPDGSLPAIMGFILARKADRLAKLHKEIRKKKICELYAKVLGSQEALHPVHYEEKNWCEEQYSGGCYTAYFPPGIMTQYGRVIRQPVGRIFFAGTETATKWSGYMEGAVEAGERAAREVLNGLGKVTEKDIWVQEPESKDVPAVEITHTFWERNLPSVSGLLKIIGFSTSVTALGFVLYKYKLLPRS

[14] = target: T3, Amine oxidase [flavin-containing] A (Homo sapiens, UniProt P21397)
T3 sequence (P21397 whole entry): T2 sequence (P21397 whole entry)
Description: Inhibition of human recombinant MAO-A expressed in supersomes assessed as inhibition of 4-hydroxyquinoline formation using kynuramine as substrate by spectrofluorimetric analysis

[15] = target: Cholinesterase (Equus caballus) (UniProt P81908); assay: Inhibition of horse serum BChE at 10 uM by Ellman's spectrophotometric assay; format: cell-free
Chain of Cholinesterase (Equus caballus) (P81908 whole entry): as the sequence (P81908 whole entry) above

[16] = Effective permeability of the compound in PBS buffer at pH 7.4 by PAMPA-BBB assay; format: ADME; conditions: read-out: Peff
[17] = target: Cytochrome P450 3A4 (Homo sapiens, UniProt P08684); assay: Inhibition of human recombinant CYP3A4 expressed in baculosomes by fluorescent homogenous assay; format: ADME
Chain of Cytochrome P450 3A4 (P08684 whole entry): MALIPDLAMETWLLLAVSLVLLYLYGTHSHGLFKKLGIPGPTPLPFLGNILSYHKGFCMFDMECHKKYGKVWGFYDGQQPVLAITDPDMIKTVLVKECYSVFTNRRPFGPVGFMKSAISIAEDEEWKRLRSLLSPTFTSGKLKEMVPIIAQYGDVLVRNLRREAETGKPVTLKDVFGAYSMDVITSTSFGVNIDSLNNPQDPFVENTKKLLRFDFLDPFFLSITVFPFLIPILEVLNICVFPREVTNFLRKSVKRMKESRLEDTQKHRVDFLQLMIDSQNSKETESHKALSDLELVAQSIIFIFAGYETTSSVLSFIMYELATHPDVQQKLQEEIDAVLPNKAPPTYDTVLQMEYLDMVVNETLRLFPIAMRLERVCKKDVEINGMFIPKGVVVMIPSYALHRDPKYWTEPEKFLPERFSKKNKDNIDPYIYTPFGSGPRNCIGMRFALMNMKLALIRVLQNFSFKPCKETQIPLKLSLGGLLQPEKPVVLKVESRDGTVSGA

[18] = target: T1, Amine oxidase [flavin-containing] B; assay: Inhibition of human recombinant MAO-B expressed in supersomes assessed as inhibition of 4-hydroxyquinoline formation using kynuramine as substrate by spectrophotometric method

| SMILES | CHI [1] | microsomal CLint at 0.5 µM [2] | half-life at 0.5 µM [3] | logD at 24 h, 1 µM [4] | Papp A→B at 1 h, 10 µM [5] | efflux ratio [6] | pIC50 [7] | Papp B→A at 1 h, 10 µM [8] | solubility kinetic at 2 h [9] | Selectivity Index [10] | pIC50 [11] | pIC50 [12] | inhibition at 10 µM [13] | pIC50 [14] | inhibition [15] | Papp [16] | pIC50 [17] | inhibition (INH) [18] |
| --- | --- | --- | --- | --- | --- | --- | --- | --- | --- | --- | --- | --- | --- | --- | --- | --- | --- | --- |
| Cc1c(C)c2ccc(OCC3CCN(Cc4ccccc4)CC3)cc2oc1=O | 99.7 | 206 µL/min/mg | 6.7 min | 3.4 | 7 ×10⁻⁶ cm/s | 1.6 | 6.42 | 12 ×10⁻⁶ cm/s | 57 µM (≈ 21.5 µg/mL) |  |  |  |  |  |  |  |  |  |
| CN(Cc1ccccc1)Cc1ccc(COc2ccc3c(C(F)F)cc(=O)oc3c2)cc1 | > 100 | 142 µL/min/mg | 9.8 min | 4.8 |  |  | 6.25 |  | 0.4 µM (≈ 0.174 µg/mL) | > 73 | 6.89 | 6.37 | 17% |  |  |  |  |  |
| Cc1c(C)c2ccc(OCC3CCCN(Cc4ccccc4)C3)cc2oc1=O (racemic) | > 100 | 265 µL/min/mg | 5.3 min | 3.65 |  |  |  |  | 33 µM (≈ 12.5 µg/mL) |  |  |  |  |  |  |  |  |  |
| CCN(CCCOc1ccc2c(C)c(C)c(=O)oc2c1)Cc1cccc(F)c1 | > 100 | 260 µL/min/mg | 5.3 min |  |  |  | 5.92 |  | 18 µM (≈ 6.9 µg/mL) |  | 7.14 | 5.37 |  | 5.11 |  |  |  |  |
| Cc1c(C)c2ccc(OCC3CCCN(CCCC(F)F)C3)cc2oc1=O (racemic) | 83.4 | 78.1 µL/min/mg | 17.8 min | 2.67 |  |  | 6.32 |  | 349 µM (≈ 132 µg/mL) |  | 6.59 |  |  | 4.96 | 22% | 13.3 ×10⁻⁶ cm/s | < 5.00 |  |
| CN(Cc1ccccc1)Cc1ccc(COc2ccc3c(CO)cc(=O)oc3c2)cc1 | 99.3 | 43.9 µL/min/mg | 31.7 min | 3.81 |  |  |  |  |  |  |  |  |  |  |  |  |  |  |
| Cc1c(C)c2ccc(OCC3CCN(Cc4cccc(F)c4)CC3)cc2oc1=O | > 100 | 225 µL/min/mg | 6.2 min | 3.43 |  |  | 6.34 |  | 11 µM (≈ 4.35 µg/mL) |  | 6.85 | 5.54 |  | 5.60 |  |  |  | Active |
| CN(CCCO)Cc1ccc(COc2ccc3c(CO)cc(=O)oc3c2)cc1 | 35.6 |  |  |  |  |  | 5.66 |  | > 500 µM |  | 6.38 |  | 13% |  | 27% | 3.1 ×10⁻⁶ cm/s |  |  |
| Cc1c(C)c2ccc(OCc3cccc(CN(C)CCCC(F)F)c3)cc2oc1=O | > 100 | 289 µL/min/mg | 4.8 min | 3.65 |  |  | 5.77 |  | 13 µM (≈ 5.4 µg/mL) |  | 6.25 | 5.80 |  | 5.38 |  |  | 6.22 |  |
| Cc1c(C)c2ccc(OCC3CCN(Cc4cccc(C(F)(F)F)c4)CC3)cc2oc1=O | > 100 | 146 µL/min/mg | 9.5 min | 5.05 |  |  | 6.33 |  | 0.9 µM (≈ 0.401 µg/mL) |  | 6.89 |  |  | 5.85 | 35% |  |  |  |
| Cc1c(C)c2ccc(OCCCN(Cc3cccc(F)c3)C(C)C)cc2oc1=O | > 100 |  |  |  |  |  | 6.04 |  | 13 µM (≈ 5.17 µg/mL) |  | 6.46 |  |  | 5.09 | 22% |  |  | Active |
| Cc1c(C)c2ccc(OCC3CCCN(Cc4cccc(F)c4)C3)cc2oc1=O (racemic) | > 100 | 210 µL/min/mg | 6.6 min | 4.38 |  |  | 5.92 |  | 20 µM (≈ 7.91 µg/mL) |  | 7.92 | 5.70 |  | 5.70 |  | 10 ×10⁻⁶ cm/s |  |  |
| Cc1c(C)c2ccc(OCc3ccc(CN(C)CCCC(F)F)cc3)cc2oc1=O | > 100 |  |  | 3.78 |  |  | 5.82 |  | 13 µM (≈ 5.4 µg/mL) |  | 6.80 | 5.39 | 45% |  |  |  |  |  |
